What is called IC50 is the concentration at which inhibition is half-maximal.

What all share (assay type): cell-based
One test concerns the target α4β1 integrin (Homo sapiens (Human), UniProt P05556+P13612). In words: VCAM-1/α4β1 integrin binding inhibitory activity evaluation test (Jurkat cell adhesion to VCAM-1/Fc). To be noted: Jurkat cells binding to recombinant human VCAM-1/Fc. Summed up:
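Jurkat cells (5×10^5/well) added with compounds to plates coated with recombinant human VCAM-1/Fc (1 μg/mL coating), in DMEM binding buffer with 40 mM HEPES, 0.2% BSA and 4 mM MnCl2, 15-60 min at 30° C. Bound cells lysed and quantified by LDH absorbance at 490 nm; IC50 relative to compound-free wells, in duplicate.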

The target in test [1] is T1, α4β7 integrin (Homo sapiens (Human), UniProt P13612+P26010). The test is described as follows: MAdCAM-1/α4β7 integrin binding inhibitory activity evaluation test (RPMI-8866 cell adhesion to MAdCAM-1/Fc). The note with it: for Selectivity: IC50 in VCAM-1/α4β1 test divided by IC50 in MAdCAM-1/α4β7 test; for IC50: RPMI-8866 cells binding to recombinant mouse MAdCAM-1/Fc, no serum. In short, it runs like this: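 Human RPMI-8866 cells (α4β7+) adhered for 15–60 min at 30 °C to plates coated with recombinant mouse MAdCAM-1/Fc, in DMEM binding buffer with 4 mM MnCl2 and test compound. Bound cells were quantified via LDH activity (A490) after lysis. IC50 is the 50% inhibition of binding relative to compound-free wells.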

The target in test [2] is T1, α4β7 integrin. The test is described as follows: MAdCAM-1/α4β7 integrin binding inhibitory activity evaluation test in the presence of serum (1). To be noted: RPMI-8866 cells binding to mouse MAdCAM-1/Fc, human serum at final concentration of 50%; read-out: α4β7 with serum added, IC50. Summed up: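 Plates were coated with recombinant mouse MAdCAM-1/Fc (1 μg/mL, pH 9.6). Human RPMI-8866 B cells (α4β7-expressing) bound for 15–60 min at 30 °C in DMEM/HEPES/BSA with 4 mM MnCl2 and 50% human serum, with test substance present. Bound cells were quantified by LDH absorbance at 490 nm, run in duplicate, and IC50 was calculated relative to no-compound wells.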

T1 sequence (P13612 34-1032): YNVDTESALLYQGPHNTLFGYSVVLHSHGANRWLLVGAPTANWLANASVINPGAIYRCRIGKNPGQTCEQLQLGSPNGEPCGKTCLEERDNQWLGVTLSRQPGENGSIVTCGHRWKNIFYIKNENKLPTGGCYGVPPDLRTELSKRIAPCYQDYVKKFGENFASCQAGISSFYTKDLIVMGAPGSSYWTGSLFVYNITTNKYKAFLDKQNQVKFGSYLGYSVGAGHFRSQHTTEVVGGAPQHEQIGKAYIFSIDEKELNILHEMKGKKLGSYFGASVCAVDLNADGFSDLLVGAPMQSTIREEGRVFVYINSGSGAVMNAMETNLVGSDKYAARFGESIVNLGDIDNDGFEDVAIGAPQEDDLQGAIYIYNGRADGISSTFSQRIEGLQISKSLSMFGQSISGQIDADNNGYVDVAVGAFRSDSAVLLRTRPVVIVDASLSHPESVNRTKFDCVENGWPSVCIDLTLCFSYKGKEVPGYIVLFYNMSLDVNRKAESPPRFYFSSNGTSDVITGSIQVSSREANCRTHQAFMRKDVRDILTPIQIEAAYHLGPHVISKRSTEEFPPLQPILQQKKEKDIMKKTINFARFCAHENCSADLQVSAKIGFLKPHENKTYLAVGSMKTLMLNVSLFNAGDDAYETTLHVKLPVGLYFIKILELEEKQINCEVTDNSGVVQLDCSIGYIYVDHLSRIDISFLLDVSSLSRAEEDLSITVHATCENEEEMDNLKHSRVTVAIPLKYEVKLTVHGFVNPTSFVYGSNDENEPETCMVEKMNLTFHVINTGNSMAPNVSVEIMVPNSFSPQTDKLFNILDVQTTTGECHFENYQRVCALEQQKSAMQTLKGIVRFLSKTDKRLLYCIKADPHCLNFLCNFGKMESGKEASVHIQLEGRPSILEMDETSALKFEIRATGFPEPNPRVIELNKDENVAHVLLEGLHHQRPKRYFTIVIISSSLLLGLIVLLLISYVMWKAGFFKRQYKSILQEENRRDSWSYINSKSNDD
T1 sequence (P26010 20-798): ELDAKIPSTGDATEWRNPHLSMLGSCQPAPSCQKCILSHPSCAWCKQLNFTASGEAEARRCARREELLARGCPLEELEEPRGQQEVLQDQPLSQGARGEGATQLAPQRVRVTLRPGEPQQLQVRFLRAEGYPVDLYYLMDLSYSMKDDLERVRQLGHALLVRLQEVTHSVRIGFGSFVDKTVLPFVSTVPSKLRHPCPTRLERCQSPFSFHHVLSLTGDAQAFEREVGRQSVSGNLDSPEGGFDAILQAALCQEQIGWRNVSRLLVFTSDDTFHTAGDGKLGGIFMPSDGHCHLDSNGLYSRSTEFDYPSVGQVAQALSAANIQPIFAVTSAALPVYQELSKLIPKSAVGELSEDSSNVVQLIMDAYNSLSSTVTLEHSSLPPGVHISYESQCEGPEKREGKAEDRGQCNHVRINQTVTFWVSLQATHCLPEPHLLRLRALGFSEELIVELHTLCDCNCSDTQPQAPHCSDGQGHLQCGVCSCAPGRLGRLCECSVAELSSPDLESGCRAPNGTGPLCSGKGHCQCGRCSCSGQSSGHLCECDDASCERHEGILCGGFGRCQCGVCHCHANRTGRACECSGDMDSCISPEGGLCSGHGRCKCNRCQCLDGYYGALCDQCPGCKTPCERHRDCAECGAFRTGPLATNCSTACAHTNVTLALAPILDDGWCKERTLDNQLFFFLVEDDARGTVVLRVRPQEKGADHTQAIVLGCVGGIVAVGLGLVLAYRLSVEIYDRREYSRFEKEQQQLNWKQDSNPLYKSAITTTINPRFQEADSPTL
α4β1 integrin, sequence (P13612 34-1032): as the sequence (P13612 34-1032) above
α4β1 integrin, sequence (P05556 21-798): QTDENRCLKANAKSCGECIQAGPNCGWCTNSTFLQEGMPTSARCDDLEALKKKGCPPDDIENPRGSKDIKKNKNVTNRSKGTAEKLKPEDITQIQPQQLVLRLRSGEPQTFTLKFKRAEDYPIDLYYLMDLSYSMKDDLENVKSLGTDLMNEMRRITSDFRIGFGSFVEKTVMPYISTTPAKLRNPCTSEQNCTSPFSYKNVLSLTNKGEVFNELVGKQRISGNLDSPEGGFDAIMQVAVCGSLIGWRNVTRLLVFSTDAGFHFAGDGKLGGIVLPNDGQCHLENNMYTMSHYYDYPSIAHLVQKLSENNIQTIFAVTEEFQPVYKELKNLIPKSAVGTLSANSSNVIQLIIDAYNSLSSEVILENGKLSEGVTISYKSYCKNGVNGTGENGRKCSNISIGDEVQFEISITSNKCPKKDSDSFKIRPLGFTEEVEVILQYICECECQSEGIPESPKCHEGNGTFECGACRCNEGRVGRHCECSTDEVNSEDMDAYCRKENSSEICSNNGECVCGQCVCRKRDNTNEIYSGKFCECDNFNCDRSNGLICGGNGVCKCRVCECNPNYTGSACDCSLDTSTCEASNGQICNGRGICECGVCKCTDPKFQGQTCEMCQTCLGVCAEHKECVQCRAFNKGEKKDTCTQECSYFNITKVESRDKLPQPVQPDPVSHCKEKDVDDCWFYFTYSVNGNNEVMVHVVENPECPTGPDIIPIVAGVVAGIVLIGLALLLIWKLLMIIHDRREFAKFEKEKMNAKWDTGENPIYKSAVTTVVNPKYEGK

With `Cn1c(=O)n(-c2ccc(C[C@H](NC(=O)c3c(F)cc(NS(=O)(=O)c4ccc(-c5ccoc5)cc4)cc3F)C(=O)O)cc2)c(=O)c2ccncc21` [Example 66, N-[2,6-Difluoro-4-({[4-(3-furyl)phenyl]sulfonyl}amino)benzoyl]-4-(1-methyl-2,4-dioxo-1,4-dihydropyrido[3,4-d]pyrimidin-3(2H)-yl)-L-phenylalanine], the IC50 on α4β1 integrin was 280 nM; at α4β7 integrin [1], 1.6 nM; on α4β7 integrin [2], 24 nM. This compound had a Selectivity on α4β7 integrin [1] of 180.
`Cn1c(=O)n(-c2ccc(C[C@H](NC(=O)c3c(F)cc(NS(=O)(=O)c4ccc(-c5ccncc5)cc4)cc3F)C(=O)O)cc2)c(=O)c2ccncc21` [Example 67, N-(2,6-Difluoro-4-{[(4-pyridin-4-yl-phenyl)sulfonyl]amino}benzoyl)-4-(1-methyl-2,4-dioxo-1,4-dihydropyrido[3,4-d]pyrimidin-3(2H)-yl)-L-phenylalanine]: the 50% inhibitory concentration (IC50) at α4β1 integrin was 210 nM; on α4β7 integrin [1], 0.55 nM; on α4β7 integrin [2] it was 11 nM. The compound also registered a Selectivity on α4β7 integrin [1] of 380.
As to `Cn1c(=O)n(-c2ccc(C[C@H](NC(=O)c3c(F)cc(NS(=O)(=O)c4ccc(-c5ccnc(F)c5)cc4)cc3F)C(=O)O)cc2)c(=O)c2ccncc21` [Example 68, N-[2,6-Difluoro-4-({[4-(2-fluoropyridin-4-yl)phenyl]sulfonyl}amino)benzoyl]-4-(1-methyl-2,4-dioxo-1,4-dihydropyrido[3,4-d]pyrimidin-3(2H)-yl)-L-phenylalanine], the IC50 at α4β1 integrin came to 120 nM; on α4β7 integrin [1], 0.13 nM; at α4β7 integrin [2], 9.8 nM. In addition, the Selectivity at α4β7 integrin [1] amounted to 920.
Consider `Cn1c(=O)n(-c2ccc(C[C@H](NC(=O)c3c(F)cc(NS(=O)(=O)c4ccc(C5=CCNCC5)cc4)cc3F)C(=O)O)cc2)c(=O)c2ccncc21` [Example 69, N-[2,6-Difluoro-4-({[4-(1,2,3,6-tetrahydropyridin-4-yl)phenyl]sulfonyl}amino)benzoyl]-4-(1-methyl-2,4-dioxo-1,4-dihydropyrido[3,4-d]pyrimidin-3(2H)-yl)-L-phenylalanine], for which the IC50 on α4β1 integrin was found to be 31 nM; at α4β7 integrin [1] it was 0.21 nM; on α4β7 integrin [2] it was 1.3 nM. Also, on α4β7 integrin [1], the Selectivity amounted to 150.
Regarding `Cc1cc(-c2ccc(S(=O)(=O)Nc3cc(F)c(C(=O)N[C@@H](Cc4ccc(-n5c(=O)c6ccncc6n(C)c5=O)cc4)C(=O)O)c(F)c3)cc2)cc(C)n1` [Example 70, N-[4-({[4-(2,6-Dimethylpyridin-4-yl)phenyl]sulfonyl}amino)-2,6-difluorobenzoyl]-4-(1-methyl-2,4-dioxo-1,4-dihydropyrido[3,4-d]pyrimidin-3(2H)-yl)-L-phenylalanine], the values for the IC50 on α4β1 integrin, on α4β7 integrin [1] and on α4β7 integrin [2] were 270 nM, 0.41 nM and 21 nM, respectively. This compound showed a Selectivity at α4β7 integrin [1] of 660.
The corresponding values for `Cn1c(=O)n(-c2ccc(C[C@H](NC(=O)c3c(F)cc(NS(=O)(=O)c4ccc(-n5ccnn5)cn4)cc3F)C(=O)O)cc2)c(=O)c2ccncc21` [Example 71, N-[2,6-Difluoro-4-({[5-(1H-1,2,3-triazol-1-yl)pyridin-2-yl]sulfonyl}amino)benzoyl]-4-(1-methyl-2,4-dioxo-1,4-dihydropyrido[3,4-d]pyrimidin-3(2H)-yl)-L-phenylalanine] are 22 nM, 0.098 nM, 0.72 nM and 220.
Consider `Cn1ccc(=O)n(-c2ccc(C[C@H](NC(=O)c3c(F)cc(NS(=O)(=O)c4ccc(-n5nccn5)cn4)cc3F)C(=O)O)cc2)c1=O` [Example 72, N-[2,6-Difluoro-4-({[5-(2H-1,2,3-triazol-2-yl)pyridin-2-yl]sulfonyl}amino)benzoyl]-4-(3-methyl-2,6-dioxo-3,6-dihydropyrimidin-1(2H)-yl)-L-phenylalanine], for which the IC50 worked out at 400 nM at α4β1 integrin, 1.6 nM at α4β7 integrin [1] and 23 nM on α4β7 integrin [2]. The Selectivity at α4β7 integrin [1] is 250.

For the origin of these results see patent US9533985B2, “Sulfonamide derivative and medicinal use thereof” (EA Pharma Co., Ltd., priority 2012, dated 2017).
